In patent publication US20240325404A1, “TREATMENT OF INFLAMMATORY DISEASES” (Galapagos NV, priority 2021, published 2024):
“Also recorded” adds a separate entry of the source.

How the values were obtained:
CYP3A4 = CYP3A4 (Homo sapiens, UniProt P08684); experiment: clinical; settings: in vivo
Description: On Days 1 and 7, single dose of 2 mg MDZ as commercially available liquid formulation, containing 2 mg/mL MDZ administered orally under fed conditions.

IFN-α/pSTAT3 pathway = experiment: MDZ DDI study ex vivo IFN-α/pSTAT3 in CD4+ T-cells; settings: 150 mg q.d., Day 6, ex vivo stimulation of whole blood
IFN-α/pSTAT1 pathway = experiment: MDZ DDI study ex vivo IFN-α/pSTAT1 in CD4+ T-cells; settings: 150 mg q.d., Day 6, ex vivo stimulation of whole blood
IL6/pSTAT3 pathway = experiment: MDZ DDI study ex vivo IL6/pSTAT3 in CD4+ T-cells; settings: 150 mg q.d., Day 6, ex vivo stimulation of whole blood
IL2/pSTAT5 pathway = experiment: MDZ DDI study ex vivo IL2/pSTAT5 in CD4+ T-cells; settings: 150 mg q.d., Day 6, ex vivo stimulation of whole blood
IL6/pSTAT1 pathway = experiment: MDZ DDI study ex vivo IL6/pSTAT1 in CD4+ T-cells; settings: 150 mg q.d., Day 6, ex vivo stimulation of whole blood

CYP3A4, sequence (P08684 whole entry): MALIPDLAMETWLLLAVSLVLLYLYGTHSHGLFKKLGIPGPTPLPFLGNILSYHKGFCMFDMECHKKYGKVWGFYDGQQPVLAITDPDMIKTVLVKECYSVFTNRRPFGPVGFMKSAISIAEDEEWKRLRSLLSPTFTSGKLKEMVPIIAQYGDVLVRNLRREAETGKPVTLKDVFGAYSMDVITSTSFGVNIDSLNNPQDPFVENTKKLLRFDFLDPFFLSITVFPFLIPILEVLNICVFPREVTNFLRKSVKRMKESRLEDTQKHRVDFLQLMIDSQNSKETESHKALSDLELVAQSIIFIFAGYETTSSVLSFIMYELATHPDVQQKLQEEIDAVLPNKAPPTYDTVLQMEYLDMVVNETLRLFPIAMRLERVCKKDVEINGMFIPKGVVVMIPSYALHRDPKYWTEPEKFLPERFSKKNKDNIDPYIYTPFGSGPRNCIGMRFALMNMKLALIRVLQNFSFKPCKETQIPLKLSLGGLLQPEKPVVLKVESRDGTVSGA

Row | SMILES | AUC(0-inf) (CYP3A4) [ng·h/mL] | Cmax (CYP3A4) [ng/mL] | MDZ AUC0-∞ LS Geometric Mean Ratio (90% CI) (CYP3A4) | AUC(0-inf) (CYP3A4; po, 2 mg) [ng·h/mL] | Cmax (CYP3A4; po, 2 mg) [ng/mL] | effect on IFN-α/pSTAT3 pathway (IFN-α/pSTAT3 pathway) | effect on IFN-α/pSTAT1 pathway (IFN-α/pSTAT1 pathway) | effect on IL6/pSTAT3 pathway (IL6/pSTAT3 pathway) | effect on IL2/pSTAT5 pathway (IL2/pSTAT5 pathway) | effect on IL6/pSTAT1 pathway (IL6/pSTAT1 pathway)
1 | Cc1ncc2n1-c1ccc(Cl)cc1C(c1ccccc1F)=NC2 [MDZ, midazolam] | 27.9 | 6.24 | 121 (109; 133) % | 23.5 | 5.95 |  |  |  |  | 
2 | Cc1cc(C#N)ncc1Oc1cc(Nc2ccc(N3CCOCC3)nn2)c2ncn(C)c2n1 [Compound 1, 4-methyl-5-[3-methyl-7-[(6-morpholin-4-ylpyridazin-3-yl)amino]imidazo[4,5-b]pyridin-5-yl]oxypyridine-2-carbonitrile] |  |  |  |  |  | concentration-dependent inhibition | concentration-dependent inhibition | Day 1 and Day 6 values were similar; also recorded: no inhibition and no concentration-dependent effect | Day 1 and Day 6 values were similar; also recorded: no inhibition and no concentration-dependent effect | concentration-dependent inhibition
